Reference: patent US20110182946A1, “Formation of Nanostructured Particles of Poorly Water Soluble Drugs and Recovery by Mechanical Techniques” (BOARD OF REGENTS, THE UNIVERSITY OF TEXAS SYSTEM, priority 2008, published 2011)
≈ marks a conversion by molar mass, not a printed value.

Legend:
[1] = Equilibrium solubility of crystalline ITZ; assay type: physicochemical; details: thermodynamic from solid
[2] = pH 6.8 buffer without addition of 0.17% SDS; cited from earlier work

solubility thermodynamic ([1]; acidic media, pH 1.2, simulated gastric fluid): 4.4 µg/mL (≈ 6.24 µM)
solubility at 18 h ([1]; pH 6.8 phosphate buffer with 0.17% SDS, aqueous with cosolvent or surfactant or cyclodextrin, pH 6.8 media with 0.17% SDS, 37.2° C.): 14 µg/mL (≈ 19.8 µM)
Structure (SMILES): CCC(C)n1ncn(-c2ccc(N3CCN(c4ccc(OCC5COC(Cn6cncn6)(c6ccc(Cl)cc6Cl)O5)cc4)CC3)cc2)c1=O (stereo not drawn) [ITZ, itraconazole]
equilibrium solubility [2]: about 1 ng/mL
